Literature values, collected in patent publication US7702465B2 (priority 2002, dated 2010).

Experiments:
[1] = biological target: HLA A*0201 (Homo sapiens, UniProt P04439, D140Y/D185E/D98H/E176V/E277Q/G131W/G231S/I119V/I121R/I166T/I218V/L300P/L318F/N151K/N90K/P208A/P217A/Q86G/Q94H/R138H/R169H/T345S); settings: binding peptides = the 15 of 247 with IC50 3 to 943 nM (Rudolf et al. 2001)
[2] = biological target: HLA A*0201 (Homo sapiens, UniProt P04439, /I218V/L300P/L318F/N151K/N90K/P208A/P217A/Q86G/Q94H/R138H/R169H/T345S); settings: binding to HLA A*0201; nonameric peptides from HPV E6 and E7; literature data of Rudolf et al. (2001)

LFLNTLSFV
classification as binder to HLA A*0201 [1]: binding peptides

FKDLFVVYR
IC50 [2]: 0.5 µM

FAFKDLFVV
IC50 [2]: 0.003 µM

LYNLLIRCL
classification as binder to HLA A*0201 [1]: binding peptides
